Laboratory results: patent US10669272B2, “Substituted naphthyridinone compounds useful as T cell activators” (BRISTOL-MYERS SQUIBB COMPANY, priority 2018, dated 2020)
Like-named read-outs stand apart in the source and are kept apart here.

How the values were obtained:
human DGKζ = target: T1, human DGKζ (Homo sapiens, UniProt Q13574); experiment: DGKζ LIPGLO assay (extruded liposome substrate), in vitro DGK inhibition; assay type: biochemical; settings: read-out: DGKz LIPGLO IC50
T1 construct: TVMV protease cleavage site (C); Hexa-His (C); made in house; host or cells: Sf9 insect cells (baculovirus, Bac-to-Bac)

Human venous whole blood = experiment: Human whole blood IFN-γ assay; assay type: cell-based; settings: human whole blood, read-out: INFg Whole Blood Normalized Agonist EC50;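 further: blood from healthy donors exposed to compound for 1 h before stimulation with anti-CD3 and anti-CD28 at 1 µg/mL each, IFN-γ quantified in supernatant by AlphaLISA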
Experimental: Human Whole Blood IFN-γ Assay
Human venous whole blood (22.5 μL per well), obtained from healthy donors, was pre-treated with compounds for one hour at 37° C. in a humidified 95% air/5% CO2 incubator. The blood was stimulated with 2.5 μL anti-human CD3 and anti-CD28 mAb at a final concentration of 1 μg/mL each for 24 hours at 37° C. IFN-γ in the supernatants was measured using AlphLISA kit (Cat # AL217).

human DGKα = target: T2, human DGKα (Homo sapiens, UniProt P23743); experiment: DGKα LIPGLO assay (extruded liposome substrate), in vitro DGK inhibition; assay type: biochemical; settings: read-out: DGKa LIPGLO IC50
T2 construct: TVMV protease cleavage site (C); Hexa-His (C); made in house; host or cells: Sf9 insect cells (baculovirus, Bac-to-Bac)

[1] = Homo sapiens, 24 h, normalized to 3 μM reference compound with anti-CD3 plus anti-CD28 as 100% activation
[2] = normalized to 3 μM reference compound with anti-CD3 plus anti-CD28 as 100% activation
[3] = Homo sapiens, 24 h, anti-CD3 plus anti-CD28, 24 hours, 3 μM reference compound = 100% activation
[4] = anti-CD3 plus anti-CD28, 24 hours, 3 μM reference compound = 100% activation

T2 sequence (P23743 with tags, fused parts or gaps): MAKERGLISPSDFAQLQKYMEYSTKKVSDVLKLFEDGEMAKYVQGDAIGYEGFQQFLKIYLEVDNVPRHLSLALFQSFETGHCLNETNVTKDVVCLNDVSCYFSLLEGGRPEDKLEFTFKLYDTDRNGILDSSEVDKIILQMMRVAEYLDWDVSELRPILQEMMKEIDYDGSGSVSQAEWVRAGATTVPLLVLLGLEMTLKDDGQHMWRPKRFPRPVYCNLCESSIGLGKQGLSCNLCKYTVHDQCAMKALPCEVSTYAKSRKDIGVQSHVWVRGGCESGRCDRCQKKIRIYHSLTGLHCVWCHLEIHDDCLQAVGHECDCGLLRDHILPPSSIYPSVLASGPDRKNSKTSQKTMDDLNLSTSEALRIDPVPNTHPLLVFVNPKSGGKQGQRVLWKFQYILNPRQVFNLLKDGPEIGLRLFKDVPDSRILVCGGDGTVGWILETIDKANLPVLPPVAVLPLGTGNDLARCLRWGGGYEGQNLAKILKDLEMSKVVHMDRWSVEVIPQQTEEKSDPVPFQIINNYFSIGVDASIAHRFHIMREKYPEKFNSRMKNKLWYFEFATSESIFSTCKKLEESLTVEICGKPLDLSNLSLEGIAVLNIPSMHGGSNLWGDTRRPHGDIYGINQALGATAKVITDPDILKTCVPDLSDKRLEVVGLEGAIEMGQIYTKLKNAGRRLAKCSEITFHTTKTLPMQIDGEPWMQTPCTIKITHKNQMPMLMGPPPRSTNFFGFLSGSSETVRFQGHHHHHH
T1 sequence (Q13574 with tags, fused parts or gaps isoform Q13574-4): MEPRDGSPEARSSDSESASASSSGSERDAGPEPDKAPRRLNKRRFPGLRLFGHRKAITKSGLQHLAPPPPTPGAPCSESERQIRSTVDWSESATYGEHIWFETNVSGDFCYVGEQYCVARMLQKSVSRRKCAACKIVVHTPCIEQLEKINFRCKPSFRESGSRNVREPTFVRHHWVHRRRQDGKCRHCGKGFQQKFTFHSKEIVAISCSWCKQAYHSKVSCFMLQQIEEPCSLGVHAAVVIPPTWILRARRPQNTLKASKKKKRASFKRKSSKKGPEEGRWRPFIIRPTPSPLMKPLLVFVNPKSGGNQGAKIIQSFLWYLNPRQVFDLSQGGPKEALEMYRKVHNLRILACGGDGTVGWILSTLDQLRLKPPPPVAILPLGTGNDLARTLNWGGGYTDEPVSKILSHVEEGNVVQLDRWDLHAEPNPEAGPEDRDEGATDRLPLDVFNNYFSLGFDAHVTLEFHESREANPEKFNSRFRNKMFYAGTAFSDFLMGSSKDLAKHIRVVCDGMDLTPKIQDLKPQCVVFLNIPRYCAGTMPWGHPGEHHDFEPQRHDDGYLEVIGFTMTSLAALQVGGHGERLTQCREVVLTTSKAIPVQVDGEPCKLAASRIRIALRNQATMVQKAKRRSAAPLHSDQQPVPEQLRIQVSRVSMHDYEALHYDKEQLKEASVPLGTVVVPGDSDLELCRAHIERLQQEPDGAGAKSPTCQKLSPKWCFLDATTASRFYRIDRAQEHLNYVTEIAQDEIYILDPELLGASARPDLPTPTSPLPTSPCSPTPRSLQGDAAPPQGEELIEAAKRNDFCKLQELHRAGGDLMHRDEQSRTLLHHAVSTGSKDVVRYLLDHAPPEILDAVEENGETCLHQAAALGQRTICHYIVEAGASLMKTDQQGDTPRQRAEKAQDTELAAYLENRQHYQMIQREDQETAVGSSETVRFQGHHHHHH

Row | Structure (SMILES) | IC50 (human DGKζ; liposome (LIPGLO) assay) [nM] | EC50 (Human venous whole blood; [1]) [nM] | IC50 (human DGKα; liposome (LIPGLO) assay) [nM] | EC50 (Human venous whole blood; [2]) [nM] | IC50 (human DGKζ; DGKζ liposome (LIPGLO) assay) [nM] | EC50 (Human venous whole blood; [3]) [nM] | IC50 (human DGKα; DGKα liposome (LIPGLO) assay) [nM] | EC50 (Human venous whole blood; [4]) [nM]
1 | CC(c1nc(C2CC2)no1)N1C[C@H](C)N(c2c(C#N)c(=O)n(C)c3ccc(C#N)nc23)C[C@H]1C (single isomer, unassigned) [Example 1307] | 14000 | 20000 | 5600 |  |  |  |  | 
2 | C[C@@H]1CN(c2cc(=O)n(C)c3ccc(C#N)nc23)[C@@H](C)CN1C(c1ccc(F)cc1)c1ccnc(C(C)(C)C)n1 (single isomer, unassigned) [Example 409] | 53 |  | 5300 | 430 |  |  |  | 
3 | C[C@@H]1CN(c2c(C#N)c(=O)n(C)c3ccc(C#N)nc23)[C@@H](C)CN1C(c1ccc(F)cc1)c1cncn1C (stereo partly drawn) [Example 848] |  |  |  |  | 100000 | 20000 | 230000 | 
4 | CC[C@H]1CN(C(c2ccc(Cl)cc2)c2ccc(Cl)cc2)[C@H](CC)CN1c1cc(=O)n(C)c2ccc(C#N)nc12 [Example 1032] | 280 | 280 | 310 |  |  |  |  | 
5 | C[C@@H]1CN(c2cc(=O)n(C)c3ccc(C#N)nc23)[C@@H](C)CN1Cc1ccc(OC(F)(F)F)cc1Br [Example 593] | 5900 | 1200 | 3100 |  |  |  |  | 
6 | C[C@@H]1CN(c2c(C#N)c(=O)n(C)c3ccc(C#N)nc23)CCN1C(c1ccc(F)cc1)c1cocn1 (stereo partly drawn) [Example 1023] |  |  |  |  | 13000 |  | 3600 | 3500
7 | CC(c1ccc(OC(F)(F)F)cc1)N1CCN(c2c(C#N)c(=O)n(C)c3ccc(C#N)nc23)C[C@H]1C (single isomer, unassigned) [Example 962] |  |  |  |  | > 250000 |  | 1500 | 20000
8 | CC(c1ccc(OC(F)F)cn1)N1C[C@H](C)N(c2cc(=O)n(C)c3ccc(C#N)nc23)C[C@H]1C (single isomer, unassigned) [Example 1225] | 1200 |  | 150 | 7700 |  |  |  | 
9 | CC(c1ccc2c(c1)OC(F)(F)O2)N1C[C@H](C)N(c2cc(=O)n(C)c3ccc(C#N)nc23)C[C@H]1C (single isomer, unassigned) [Example 654] | 130 |  | 2000 | 400 |  |  |  | 
10 | C[C@@H]1CN(c2cc(=O)n(C)c3ccc(C#N)nc23)[C@@H](C)CN1C(c1ccc(Br)cc1)c1nc(C2CC2)no1 (stereo partly drawn) [Example 760] |  |  |  |  | 22 |  | 70 | 48
11 | CC[C@@H]1CN(c2cc(=O)n(C)c3ccc(C#N)nc23)[C@@H](C)CN1C(c1ccc(Cl)cc1)c1ccccn1 (single isomer, unassigned) [Example 422] | 89 |  | 120 | 220 |  |  |  | 
12 | C[C@@H]1CN(c2cc(=O)n(C)c3ccc(C#N)nc23)[C@@H](C)CN1Cc1ccc(OC(F)(F)F)cc1 [Example 609] | 13000 | 2200 | 21 |  |  |  |  | 
13 | CC[C@@H]1CN(c2cc(=O)n(C)c3ccc(C#N)nc23)[C@@H](C)CN1C(c1ccc(OC(F)(F)F)cc1)c1ccccn1 (single isomer, unassigned) [Example 340] | 220 | 80 | 320 |  |  |  |  | 
14 | C[C@@H]1CN(C(c2ccc(F)cc2)c2ccc(Cl)cc2)[C@@H](CO)CN1c1cc(=O)n(C)c2ccc(C#N)nc12 (stereo partly drawn) [Example 1175] | 1000 | 20000 | 21000 |  |  |  |  | 
15 | CC[C@@H]1CN(c2cc(=O)n(C)c3ccc(C#N)nc23)[C@@H](C)CN1C(C)c1ccc(Cl)cc1F (single isomer, unassigned) [Example 1352] | 16 | 28 | 120 |  |  |  |  | 
16 | CC[C@@H]1CN(c2cc(=O)n(C)c3ccc(C#N)nc23)[C@@H](C)CN1C(c1ccc(F)cc1)c1ccc(Cl)cc1 (stereo partly drawn) [Example 1101] | 240 |  | 350 | 230 |  |  |  | 
17 | C[C@@H]1CN(c2cc(=O)n(C)c3ccc(C#N)nc23)[C@@H](C)CN1C(Cc1nc(C2CC2)no1)c1ccc(F)cc1 (single isomer, unassigned) [Example 1326] | 470 |  | 1200 | 1700 |  |  |  | 

Row | Structure (SMILES) | IC50 (human DGKζ; liposome (LIPGLO) assay) [nM] | EC50 (Human venous whole blood; [1]) [nM] | IC50 (human DGKα; liposome (LIPGLO) assay) [nM] | EC50 (Human venous whole blood; [2]) [nM] | IC50 (human DGKζ; DGKζ liposome (LIPGLO) assay) [nM] | EC50 (Human venous whole blood; [3]) [nM] | IC50 (human DGKα; DGKα liposome (LIPGLO) assay) [nM] | EC50 (Human venous whole blood; [4]) [nM]
18 | CC[C@H]1CN(C(C)c2ccc3c(c2)OC(F)(F)O3)[C@H](CC)CN1c1cc(=O)n(C)c2ccc(C#N)nc12 (single isomer, unassigned) [Example 1369] | 750 |  | 1400 | 1300 |  |  |  | 
19 | CC(=O)N1CC(c2noc(C(c3ccc(F)cc3)N3C[C@H](C)N(c4cc(=O)n(C)c5ccc(C#N)nc45)C[C@H]3C)n2)C1 (single isomer, unassigned) [Example 1297] | 92 | 2700 | 220 |  |  |  |  | 
20 | CC(c1ccc(OC(C)(C)C)cc1)N1C[C@H](C)N(c2cc(=O)n(C)c3ccc(C#N)nc23)C[C@H]1C (single isomer, unassigned) [Example 1442] | 1000 |  | 65 | 530 |  |  |  | 
21 | CC(c1ccc(F)cc1F)N1CCN(c2c(C#N)c(=O)n(C)c3ccc(C#N)nc23)C[C@H]1C (single isomer, unassigned) [Example 970] |  |  |  |  | 28000 |  | 870 | 11000
22 | CC(c1ccc(F)cc1)N1CCN(c2c(C#N)c(=O)n(C)c3ccc(C#N)nc23)C[C@H]1C (single isomer, unassigned) [Example 957] |  |  |  |  | 8600 |  | 260 | 1700
23 | CC[C@H]1CN(C(C)c2ccc(OC(F)(F)F)cc2)[C@H](CC)CN1c1cc(=O)n(C)c2ccc(C#N)nc12 (single isomer, unassigned) [Example 1054] | 590 |  | 470 | 2700 |  |  |  | 
24 | C[C@@H]1CN(c2c(C#N)c(=O)n(C)c3ccc(C#N)nc23)[C@@H](C)CN1C(c1ccc(Cl)cc1)c1ccc(F)cn1 (single isomer, unassigned) [Example 829] |  |  |  |  | 8000 | 1200 | 5500 | 
25 | CC[C@H]1CN(C(C)c2ccc(OC(F)(F)F)cc2F)[C@H](CC)CN1c1cc(=O)n(C)c2ccc(C#N)nc12 (single isomer, unassigned) [Example 1372] | 1700 |  | 460 | 1400 |  |  |  | 
26 | C[C@@H]1CN(c2c(C#N)c(=O)n(C)c3ccc(C#N)nc23)[C@@H](C)CN1C(c1ccc(F)cc1)c1ccc(F)cn1 (stereo partly drawn) [Example 827] |  |  |  |  | 10000 |  | 4400 | 1300
27 | C[C@@H]1CN(c2c(C#N)c(=O)n(C)c3ccc(C#N)nc23)[C@@H](C)CN1C(c1ccccc1)c1cc(F)cc(F)c1 (single isomer, unassigned) [Example 813] |  |  |  |  | 3700 |  | 85000 | 20000
28 | C[C@@H]1CN(c2c(C#N)c(=O)n(C)c3ccc(C#N)nc23)[C@@H](C)CN1C(c1ccc(F)cc1)c1ccc(C(F)(F)F)cn1 (single isomer, unassigned) [Example 836] |  |  |  |  | 4900 | 1100 | 4700 | 
29 | COC(=O)c1cccc(C(C)N2C[C@H](C)N(c3c(C#N)c(=O)n(C)c4ccc(C#N)nc34)C[C@H]2C)c1 (single isomer, unassigned) [Example 795] |  |  |  |  | 160000 | 20000 | 13000 | 
30 | COc1ccc(C(C)N2C[C@H](C)N(c3cc(=O)n(C)c4ccc(C#N)nc34)C[C@H]2C)cc1C(F)(F)F (stereo partly drawn) [Example 1249] | 640 | 17000 | 51000 |  |  |  |  | 
31 | C[C@@H]1CN(c2c(C#N)c(=O)n(C)c3ccc(C#N)nc23)CCN1Cc1ccc(F)c(F)c1 [Example 987] |  |  |  |  | 1800 | 7300 | 2900 | 
32 | CC(c1ccc(F)cc1)N1C[C@@H](C)N(c2cc(=O)n(C)c3ccc(C#N)nc23)C[C@@H]1CO (single isomer, unassigned) [Example 1179] | 850 |  | > 250000 | 20000 |  |  |  | 
33 | C[C@@H]1CN(c2cc(=O)n(C)c3ccc(C#N)nc23)[C@@H](C)CN1C(c1ccc(Cl)cc1)c1cc(F)ccn1 (stereo partly drawn) [Example 446, 8-((2S,5R)-4-((4-chlorophenyl)(4-fluoropyridin-2-yl)methyl)-2,5-dimethylpiperazin-1-yl)-5-methyl-6-oxo-5,6-dihydro-1,5-naphthyridine-2-carbonitrile] | 2100 | 1100 | 1700 |  |  |  |  | 
